Assay results reported in patent publication US9518064B2, “Imidazothiadiazole and imidazopyridazine derivatives as protease activated receptor 4 (PAR4) inhibitors for treating platelet aggregation” (BRISTOL-MYERS SQUIBB COMPANY, priority 2012, dated 2016).
Where no end group is shown, it is not given here.

Columns and labels:
human washed platelets = experiment: Alpha-thrombin induced platelet aggregation assay in human washed platelets; format: cell-based; conditions: 0.1 h, read-out: IC50 for the inhibition of platelet aggregation
Method: Example D is an alpha-thrombin-induced platelet aggregation assay. Alpha-thrombin activates both PAR1 and PAR4. The ability of a selective PAR4 antagonist of the present invention, Example 13, to inhibit platelet aggregation was measured using a standard optical aggregometer.
Human blood was collected in ACD (85 mM tri-sodium citrate, 78 mM citric acid, 110 mM D-glucose, pH 4.4) at a ratio of 1.4 ml per 10 ml blood. PRP was isolated by centrifugation at 170 g for 14 minutes and platelets were further pelleted by centrifugation at 1300 g for 6 minutes. Platelets were washed once with 10 ml ACD containing 1 mg/ml bovine serum albumin. Platelets were resuspended at ˜2.5×10^8/ml in Tyrode's Buffer (137 mM NaCl, 2 mM KCl, 1.0 mM MgCl2, 1 mM CaCl2, 5 mM glucose, 20 mM HEPES pH 7.4).
The ability of a PAR4 antagonist (Example 13) compound to inhibit platelet aggregation induced by alpha-thrombin was tested using human washed platelets. Example 13 was pre-incubated with washed platelets for 20 min. Aggregation was initiated by addition of 1.5 nM alpha-thrombin (Haematologic Technologies, Essex Junction, Vt.) to 300 μl of washed platelets at stirring speed of 1000 rpm. […] IC50 was calculated using vehicle control as 0% inhibition.

PAR4 [1] = biological target: T1, PAR4 (Homo sapiens (Human), UniProt Q96RI0); experiment: Gamma thrombin induced platelet aggregation assay (PRP assay); format: cell-based; conditions: γ-thrombin induced platelet aggregation in PRP
PAR4 [2] = biological target: T1, PAR4; experiment: FLIPR assay in PAR4-expressing HEK293 cells (calcium mobilization); format: cell-based; conditions: PAR4 antagonist activity, FLIPR assay as described in Example A
human PRP = experiment: Tissue factor-induced platelet aggregation assay; format: cell-based; conditions: FIGS. 1 and 2
Source text: Example E is a tissue factor-induced platelet aggregation assay. The conditions in this assay mimic the physiological events during thrombus formation. In this assay, platelet aggregation in human PRP was initiated by the addition of tissue factor and CaCl2. Tissue factor, the initiator of the extrinsic coagulation cascade, is highly elevated in human atherosclerotic plaque. Exposure of blood to tissue factor at the atherosclerotic site triggers a robust generation of thrombin and induces the formation of obstructive thrombi.
The ability of PAR1 or PAR4 antagonists to inhibit platelet aggregation induced by endogenous thrombin can be tested in a tissue factor driven aggregation assay. Aggregation is initiated by addition of CaCl2 and recombinant human tissue factor, which results in the generation of thrombin through activation of the coagulation pathway in the plasma. Anticoagulant agents such as corn trypsin inhibitor (Haematologic Technologies, Essex Junction, Vt.) at 50 μg/ml and PEFABLOC® FG (Centerchem, Norwalk, Conn.) are also added to the sample to prevent fibrin clot formation during the time of the study. Platelet aggregation is monitored using standard instrumentation including optical aggregometer or impedance aggregometer.

[3] = ACS patients; cited from earlier work
PAR1 = PAR1 (Homo sapiens (Human), UniProt P25116); experiment: FLIPR PAR1 counter screen (SFFLRR-induced calcium mobilization) in HEK293 cells; format: cell-based; conditions: Example A, routinely tested; read-out: EC50 of agonist peptide in the assay (PAR1 counter screen)
PAR1, sequence (P25116 22-425): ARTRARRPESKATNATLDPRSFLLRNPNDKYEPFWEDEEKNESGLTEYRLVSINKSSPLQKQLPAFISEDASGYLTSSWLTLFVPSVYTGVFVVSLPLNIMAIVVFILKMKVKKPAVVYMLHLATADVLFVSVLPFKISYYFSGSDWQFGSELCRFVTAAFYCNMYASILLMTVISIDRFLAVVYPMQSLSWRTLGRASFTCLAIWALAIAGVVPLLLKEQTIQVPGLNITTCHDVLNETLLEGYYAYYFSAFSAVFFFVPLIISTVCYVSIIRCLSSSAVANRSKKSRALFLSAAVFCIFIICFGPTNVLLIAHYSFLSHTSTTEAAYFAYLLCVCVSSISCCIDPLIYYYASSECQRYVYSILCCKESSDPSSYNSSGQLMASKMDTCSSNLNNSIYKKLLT

T1 sequence (Q96RI0 18-385): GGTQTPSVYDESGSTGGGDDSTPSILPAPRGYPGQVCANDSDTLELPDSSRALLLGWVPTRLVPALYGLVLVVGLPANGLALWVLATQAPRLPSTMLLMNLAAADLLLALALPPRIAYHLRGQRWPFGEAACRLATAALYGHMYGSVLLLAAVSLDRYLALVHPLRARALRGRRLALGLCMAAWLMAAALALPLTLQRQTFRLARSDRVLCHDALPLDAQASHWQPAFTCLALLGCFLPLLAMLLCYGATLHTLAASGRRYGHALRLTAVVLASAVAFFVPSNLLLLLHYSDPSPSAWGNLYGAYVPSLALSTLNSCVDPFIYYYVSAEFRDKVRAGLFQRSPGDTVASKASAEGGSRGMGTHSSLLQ

| IC50 (PAR4 [1]) [nM] | IC50 (PAR4 [2]) [nM] | Compound | further results |
| --- | --- | --- | --- |
| 2.97 | 0.36 | COc1cc(OCc2ccnc(-c3ccnc(F)c3)n2)c2cc(-c3cn4nc(OC)sc4n3)oc2c1 [Example 97, 6-(4-((2-(2-Fluoropyridin-4-yl)pyrimidin-4-yl)methoxy)-6-methoxybenzofuran-2-yl)-2-methoxyimidazo[2,1-b][1,3,4]thiadiazole] |  |
| 1.67 | 0.29 | COc1cc(OCc2ccnc(-c3ccc(C(=O)N(C)C)cc3)n2)c2cc(-c3cn4nc(OC)sc4n3)oc2c1 [Example 98] |  |
| 1.8 | 0.76 | COc1ccc(-c2nccc(COc3cc(OC)cc4oc(-c5cn6nc(OC)sc6n5)cc34)n2)cc1 [Example 100] |  |
| 87.6 | 0.41 | COc1cc(OCc2cccc(C3(O)CCOCC3)n2)c2cc(-c3cn4nc([C@H](C)F)sc4n3)oc2c1 [Example 110, (S)-4-(6-(((2-(2-(1-Fluoroethyl)imidazo[2,1-b][1,3,4]thiadiazol-6-yl)-6-methoxybenzofuran-4-yl)oxy)methyl)pyridin-2-yl)tetrahydro-2H-pyran-4-ol] |  |
|  |  | CCOC(=O)N[C@@H]1CC[C@@H]2[C@@H](C1)C[C@H]1C(=O)O[C@H](C)[C@H]1[C@H]2/C=C/c1ccc(-c2cccc(F)c2)cn1 [vorapaxar] | reduction of cardiovascular events [3]: did not significantly reduce; risk of major bleeding [3]: significantly increased |
|  |  | SFFLRR [SFFLRR] | EC50 (PAR1): 600 nM |
|  |  | trans-cinnamoyl-Phe(4-F)-Phe(4-guanidino)-Leu-Arg-Arg-NH2 [reference compound] | inhibition of tissue factor-induced platelet aggregation (human PRP): effective inhibition |

| Compound | IC50 (PAR4 [1]) [nM] | IC50 (PAR4 [2]) [nM] | further results |
| --- | --- | --- | --- |
| COc1cc(OCc2cccc(-c3ccc(C#N)nc3)c2)c2cc(-c3cn4nc(OC)sc4n3)oc2c1 [Example 13] | 4.91 | 1.74 | IC50 (human washed platelets): 11 nM; inhibition of tissue factor-induced platelet aggregation (human PRP): effective inhibition |
